# Laboratory results taken from US8182815B2, “Fibroblast growth factor receptor-3 (FGFR-3) inhibitors and methods of treatment” (ImClone, LLC, priority 2008, dated 2012).
# Key:
# [1] = target: T1, FGFR-3 (K650E) in OPM-2 cells (Homo sapiens, UniProt P22607, K650E); assay: FGFR-3 receptor degradation in OPM-2 cells (western blot); type: cell-based; conditions: 37° C., Antibody 1 30 ug/ml, FGF-1 30 ng/ml
# T1 construct: endogenous in cells; host or cells: OPM-2
# Procedure: OPM-2 is a cell line originally isolated from cancer cells of multiple myeloma. OPM-2 cells are known to express FGFR-3 receptors harboring a gain-of-function K650E point mutation. Quiesce the OPM-2 cells in low serum culture media (0.1% FBS) for overnight. The next day, divide these cells into 5 groups. Group 1 is lysed immediately, and the lysate is kept at −20° C. until the time of western blot analysis. This group is therefore designated as Time 0 hr sample. Group 2-5 each has 3 samples of equal size, named as Sample A, B and C of Group 2, 3, 4, and 5. Samples A of Group 2-5 are not subjected to any further treatment, but are incubated at 37° C. Samples B of Group 2-5 are treated with 30 ng/ml FGF-1 at 37° C. […] All samples of Group 2 are lysed after 1 hr of treatment, and the lysates are kept at −20° C. until the time of western blot analysis. This group is designated as the Time 1 hr samples. All samples of Group 3 are lysed after 4 hr of treatment, and the lysates are kept at −20° C. until the time of western blot analysis. This group is designated as the Time 4 hr samples. All samples of Group 4 are lysed after 8 hr of treatment, and the lysates are kept at −20° C. until the time of western blot analysis. This group is designated as Time 8 hr samples. All samples of Group 5 are lysed after 24 hr of treatment, and the lysates are kept at −20° C. until the time of western blot analysis. This group is designated as Time 24 hr samples. When all lysates are ready, they are subjected to SDS-PAGE followed by Western Blot experiment. The FGFR-3 signals of Group 1 and all samples of Group 2 are similar. […] In Group 5, the FGFR-3 signal of Sample A is lower than that of group 1; yet signals of Samples B and C are nearly absent.
# RT112 cells = assay: RT112 cell proliferation assay (3H-thymidine incorporation); type: cell-based, human; conditions: 1 nM exogenous FGF-1, 48 hours
# Procedure: Quiesce monolayer RT112 cells in low serum culture media (0.1% fetal bovine serum, 5 μg/mL heparin) for 24-72 hrs. Divide cells into 4 samples. Add FBS (Fetal Bovine Serum) to Sample 1 to the final concentration of 10% (V:V). Leave Sample 2 in the starving media. Add FGF-1 to Sample 3 to the final concentration of 1 nM. […] Next, add FGF-1 to the final concentration of 1 nM. After preparing Samples 1-4 as described above, incubate the samples in a tissue culture incubator set at 37° C. and with 5% CO2 (v:v) for 48 hours. Detect cell growth using standard ^3H-thymidine incorporation, assays. Tumor cell growth is doubled when RT112 cells […] are stimulated with 1 nM exogenous FGF-1.
# RT4 tumor = assay: RT4 xenograft, combination with cisplatin; conditions: Antibody 1 40 mg/kg three times weekly, cisplatin MTD
# Procedure: (§1) The therapeutic benefit of combining cisplatin with FGFR-3 antibody in three bladder xenograft models is explored. Develop RT112, RT4 and BFTC905 xenograft tumor models by routine methods in which 1-20 million tumor cells mixed with 0-100% Matrigel are injected subcutaneously to each female athymic nude mouse. Start antibody treatment once the mean volume of the subcutaneous tumors is approximately 400 mm^2. […] Measure tumor volumes 3 times weekly until the end of the studies.
# Conduct RM ANOVO statistical test.
# BFTC-905 tumor = assay: BFTC905 xenograft, combination with cisplatin; conditions: Antibody 1 40 mg/kg three times weekly, cisplatin MTD
# Procedure: as §1
# Conduct RM ANOVO statistical test.
# RT-112 tumor = assay: RT112 xenograft, combination with cisplatin; conditions: Antibody 1 40 mg/kg three times weekly, cisplatin MTD
# Procedure: as §1
# Conduct RM ANOVO statistical test.
# T1 sequence (P22607 23-806 K650E): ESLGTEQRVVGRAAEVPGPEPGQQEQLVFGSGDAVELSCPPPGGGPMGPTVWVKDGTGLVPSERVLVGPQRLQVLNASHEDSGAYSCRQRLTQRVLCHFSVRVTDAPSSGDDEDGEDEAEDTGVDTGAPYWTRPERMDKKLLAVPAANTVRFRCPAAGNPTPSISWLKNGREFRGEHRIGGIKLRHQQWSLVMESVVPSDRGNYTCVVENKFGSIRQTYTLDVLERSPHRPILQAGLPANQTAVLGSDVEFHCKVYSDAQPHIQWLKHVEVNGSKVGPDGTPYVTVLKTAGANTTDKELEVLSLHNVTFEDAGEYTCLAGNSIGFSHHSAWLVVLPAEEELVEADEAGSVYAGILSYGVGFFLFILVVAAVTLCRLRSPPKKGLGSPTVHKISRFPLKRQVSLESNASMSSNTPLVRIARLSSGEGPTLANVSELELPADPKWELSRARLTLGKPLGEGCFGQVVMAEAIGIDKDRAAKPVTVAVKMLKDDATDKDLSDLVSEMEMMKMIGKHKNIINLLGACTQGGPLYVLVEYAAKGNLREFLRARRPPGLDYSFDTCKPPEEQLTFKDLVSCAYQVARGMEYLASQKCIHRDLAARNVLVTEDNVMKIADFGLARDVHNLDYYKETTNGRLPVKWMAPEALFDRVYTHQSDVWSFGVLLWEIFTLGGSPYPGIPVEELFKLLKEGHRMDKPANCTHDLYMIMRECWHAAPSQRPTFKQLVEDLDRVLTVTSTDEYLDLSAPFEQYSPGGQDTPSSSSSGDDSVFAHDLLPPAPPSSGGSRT
molecule,measurement,setting,value
"FGF-1: recombinant human FGF ligand, known to induce FGFR degradation",FGFR-3 signal compared with Time 0 hr (Group 1),[1]; Time 1 hr,similar
same,FGFR-3 signal compared with Time 0 hr (Group 1),[1]; Time 4 hr,significantly lower
same,FGFR-3 signal compared with Time 0 hr (Group 1),[1]; Time 8 hr,significantly lower
same,FGFR-3 signal compared with Time 0 hr (Group 1),[1]; Time 24 hr,nearly absent
same,tumor cell growth on stimulation,RT112 cells,doubled
"N.N.[Cl][Pt][Cl] [Cisplatin, cisplatin, reference compound]","RT4 Tumor Volumes, Average",RT4 tumor; Day 1,195.4 mm^3
same,"RT4 Tumor Volumes, Average",RT4 tumor; Day 8,253.4 mm^3
same,"RT4 Tumor Volumes, Average",RT4 tumor; Day 15,374.0 mm^3
same,"RT4 Tumor Volumes, Average",RT4 tumor; Day 22,511.9 mm^3
same,"RT4 Tumor Volumes, Average",RT4 tumor; Day 29,675.8 mm^3
same,"RT4 Tumor Volumes, Average",RT4 tumor; Day 36,840.5 mm^3
same,"RT4 Tumor Volumes, Average",RT4 tumor; Day 42,1024.5 mm^3
same,"BFTC-905 Tumor Volumes, Average",BFTC-905 tumor; Day 0,192.1 mm^3
same,"BFTC-905 Tumor Volumes, Average",BFTC-905 tumor; Day 3,211.4 mm^3
same,"BFTC-905 Tumor Volumes, Average",BFTC-905 tumor; Day 7,243.4 mm^3
same,"BFTC-905 Tumor Volumes, Average",BFTC-905 tumor; Day 14,286.7 mm^3
same,"BFTC-905 Tumor Volumes, Average",BFTC-905 tumor; Day 21,395.0 mm^3
same,"BFTC-905 Tumor Volumes, Average",BFTC-905 tumor; Day 28,511.6 mm^3
same,"BFTC-905 Tumor Volumes, Average",BFTC-905 tumor; Day 35,615.5 mm^3
same,"BFTC-905 Tumor Volumes, Average",BFTC-905 tumor; Day 42,829.6 mm^3
same,"RT-112 Tumor Volumes, Average",RT-112 tumor; Day 1,175.7 mm^3
same,"RT-112 Tumor Volumes, Average",RT-112 tumor; Day 8,245.1 mm^3
same,"RT-112 Tumor Volumes, Average",RT-112 tumor; Day 15,360.8 mm^3
same,"RT-112 Tumor Volumes, Average",RT-112 tumor; Day 22,578.8 mm^3
same,"RT-112 Tumor Volumes, Average",RT-112 tumor; Day 29,739.4 mm^3
same,"RT-112 Tumor Volumes, Average",RT-112 tumor; Day 36,881.6 mm^3
same,"RT-112 Tumor Volumes, Average",RT-112 tumor; Day 42,1115.9 mm^3
